Patent publication US20190194607A1, “HIGHLY FUNCTIONAL LIVER CELLS DERIVED FROM PLURIPOTENT STEM CELLS, METHOD FOR PRODUCING SAME, AND METHOD FOR TESTING METABOLISM/TOXICITY OF DRUG” (DNAVEC CORPORATION, priority 2011, published 2019)

How the values were obtained:
[1] = test system: hepatocytes derived from human ES cells (KhES-1 cell line); assay: Drug toxicity test: liver deviation enzymes in culture supernatant, human ES cell-derived hepatocytes; type: cell-based; settings: D-GalN 25 mM, 24 hours; hepatocytes 28th day from differentiation induction; FIG. 15(A)
Method: (§1) D-Galactosamine (D-GalN), which is known to have toxicity to hepatocytes, was added to pluripotent stem cell-derived hepatocytes at a final concentration of 25 mM, followed by culture at 37° C. After 24 hours, 1.5 mL of culture supernatant was collected and was centrifuged at 15000 rpm at 4° C. to completely remove cell components. The concentrations of liver-derived deviation enzymes contained in the supernatant, i.e., glutamic oxaloacetic transaminase (GOT), glutamic pyruvic transaminase (GPT), γ-glutamyl transpeptidase (y-GTP), leucine aminopeptidase (LAP), lactate dehydrogenase (LDH), and LDH isozyme (LDH 1 to 5), were measured (performed at BML Inc., Shibuya, Tokyo, Japan).

[2] = test system: undifferentiated ES cells; assay: Drug toxicity test: deviation enzymes in culture supernatant, undifferentiated human ES cells; type: cell-based; settings: D-GalN 25 mM, 24 hours; FIG. 15(B)
[3] = test system: hepatocytes derived human iPS cells (#40); assay: Drug toxicity test: deviation enzymes in culture supernatant, human iPS cell-derived hepatocytes; type: cell-based; settings: D-GalN 25 mM, 24 hours; FIG. 15(C)
Method: as §1

[4] = test system: undifferentiated ES cells; assay: Drug toxicity test: deviation enzymes in culture supernatant, undifferentiated cells of FIG. 15(D); type: cell-based, human; settings: D-GalN 25 mM, 24 hours
[5] = test system: SeV-iPS-derived hepatocytes; assay: Drug toxicity test: deviation enzymes in culture supernatant, SeV-iPS-derived hepatocytes; type: cell-based, human; settings: cultured in the presence of D-GalN; FIG. 15(E)
Method: as §1

[6] = test system: undifferentiated SeV-iPS cells; assay: Drug toxicity test: deviation enzymes in culture supernatant, undifferentiated SeV-iPS cells; type: cell-based, human; settings: cultured in the presence of D-GalN; FIG. 15(F)
[7] = test system: HepaRG cells; assay: Drug toxicity test: deviation enzymes in culture supernatant, HepaRG cells; type: cell-based, human; settings: cultured in the presence of D-GalN; FIG. 15(G)
Method: (§2) The HepaRG cells were cultured in accordance with the protocol of BIOPREDIC international. The HepG2 cells were purchased from Health Science Research Resources Bank, and the human primary cultured adult hepatocyte cell line was purchased from DS Pharma Biomedical Co., Ltd. (Osaka, Japan). They were cultured using a CS-C medium kit of Cell Systems Corporation (Kirkland, WA, USA). In the figure, 253G1 refers to a human iPS cell line established at Kyoto University, #40 refers to a human iPS cell line established at National Center for Child Health and Development, SeV refers to an iPS cell line induced using a SeV vector, ES-K1 refers to a human ES cell line established at Kyoto University, and CTL is an abbreviation of control.
as §1

[8] = test system: HepG2 cells; assay: Drug toxicity test: deviation enzymes in culture supernatant, HepG2 cells; type: cell-based, human; settings: cultured in the presence of D-GalN; FIG. 15(H)
Method: as §2, §1

[9] = test system: hepatocytes derived from a #40 cell line; assay: PGE1 pretreatment before D-GalN administration: deviation enzymes in culture supernatant; type: cell-based, human; settings: 4 mM PGE1 pretreatment, 37° C. for 4 hours, then D-GalN administration; FIG. 16
Method: as §1
That is, 4 mM PGE1 was added to hepatocytes derived from a #40 cell line in advance, and the hepatocytes were cultured at 37° C. for 4 hours and were subjected to a D-GalN administration experiment as in above. […] Similar tendencies were detected in the samples of hepatocyte differentiation induction from other human iPS cell lines and human ES cell lines.

N[C@H]1C(O)O[C@H](CO)[C@H](O)[C@@H]1O (stereo partly drawn) [D-GalN, D-Galactosamine]
LDH isozyme pattern [1]: “liver damage-type” pattern in which type 4 and type 5 are dominant
level of GOT in culture supernatant [1]: increased
level of LAP in culture supernatant [1]: increased
level of LDH in culture supernatant [1]: increased
level of γ-GTP in culture supernatant [1]: increased
levels of all of the deviation enzymes in culture supernatant [2]: did not increase
LDH isozyme pattern [3]: “liver damage-type” pattern in which type 4 and type 5 are dominant
level of GOT in culture supernatant [3]: increased
level of GPT in culture supernatant [3]: increased
level of LAP in culture supernatant [3]: increased
level of LDH in culture supernatant [3]: increased
level of γ-GTP in culture supernatant [3]: increased
level of GOT in culture supernatant [4]: did not increase
level of GPT in culture supernatant [4]: did not increase
level of LAP in culture supernatant [4]: did not increase
level of LDH in culture supernatant [4]: did not increase
level of γ-GTP in culture supernatant [4]: did not increase
level of GOT in the culture supernatant [5]: increased
level of GOT in the culture supernatant [6]: did not increase
level of GOT in the culture supernatant [7]: increased
level of GPT in the culture supernatant [7]: increased
level of LAP in the culture supernatant [7]: increased
level of LDH-5 in the culture supernatant [7]: increased
level of γ-GTP in the culture supernatant [7]: did not increase
level of GOT in the culture supernatant [8]: increased
level of GPT in the culture supernatant [8]: increased
level of LAP in the culture supernatant [8]: did not increase
level of LDH-5 in the culture supernatant [8]: increased
level of γ-GTP in the culture supernatant [8]: did not increase

CCCCC[C@H](O)/C=C/[C@H]1[C@H](O)CC(=O)[C@@H]1CCCCCCC(=O)O [PGE1, prostaglandin E1]
levels of all the deviation enzymes from the liver detected in the culture supernatant after D-GalN [9]: significantly suppressed
